Laboratory results: patent US8975265B2, “Substituted imidazo[1,2-a]pyrimidines and —pyridines” (Bayer Intellectual Property GmbH, priority 2010, dated 2015)
Like-named read-outs stand apart in the source and are kept apart here.

Key:
[1] = tested on: p-AKT1/2/3-S473 in KPL4 breast tumour cell line; assay: Cellular p-AKT1/2/3-S473 assay; type: cell-based; details: KPL4 breast tumour cell line, 2 hours treatment; read-out: pAKT-S743 median IC50
In short: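 KPL4 cells (PIK3CA H1047R, HER2 0/E, hormone independent) were seeded at 60–80% confluency, cultured overnight, then exposed to compound for 2 h at 37 °C. pAKT-S473 and total AKT measured together by MSD Akt Duplex on 20 µg extract; pAKT expressed as % of total AKT, at least duplicate with independent repeats.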

[2] = tested on: KPL-4 breast cancer cell line; assay: Tumor cell proliferation assay (CellTiter-Glo, 72 h), KPL-4; type: cell-based; details: KPL4, 72h drug exposure
In short: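 KPL-4 cells were treated with compound for 72 h at 37°C. Viability was measured as ATP by CellTiter-Glo luminescence, with a separate t=0 plate read after overnight attachment. A reference compound was run as standard.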

[3] = tested on: p-AKT S473 in PC3 human prostate tumours; assay: In vivo xenograft mechanism of action study; parameters: species or system athymic nude mice; details: Mus musculus, po, PC3 tumours in nude mice, once 50 mg/kg p.o.
From the text: In Vivo Xenograft Mechanism of Action Study
To this extent PC3 human prostate tumours were xenografted onto athymic nude mice. PC3 tumour cells were cultivated according to ATCC protocols in recommended media contained 10% FCS and harvested for transplantation in a subconfluent (70%) state. 3×10^6 tumour cells suspended in 50% Matrigel were subcutaneously implantated into the inguinal region of male mice. Tumours were allowed to grow to the predetermined size of 60-80 mm^2. When the tumours were approximately in size, the animals were randomized to treatment and control groups (groups size: 9 animals) and treatment was started. Animals were treated once with 50 mg/kg compound or vehicle per oral administration (p.o.) carried out via a gastric tube. Treatment of each animal was based on individual body weight. At 2, 5 and 24 hours post treatment 3 animals each were sacrificed and the PC3 tumours excised. Tumour samples of approximately 5×5×5 mm were lysed on ice in MSD lysis buffer in the presence of protease and phosphatase inhibitors using Tissue Lyzer (Qiagen, Germany). The levels of p-AKT S473 in extracts from tumour tissue were analysed in an ELISA based assay. This assay is based on the “Akt Duplex” of the MULTI-SPOT® Assay System (Fa. Meso Scale Discovery, Cat# N41100B-1) following manufacturers instructions. Each assay used 20 μg of protein extract and measured total AKT and p-AKT content simultaneously in one well. All measurements where at least done in duplicates and confirmed by independent repetition.
Values for P-AKT are expressed as percentage of P-AKT level compared to total-AKT content of the extracts. Vehicle treated tumours were analyzed to determine the basal level of P-AKT in this model and used as a normalization control to determine the % P-AKT relative to vehicle levels.

[4] = biological target: His-tagged human recombinant kinase full-length Akt1 (Homo sapiens (Human), UniProt P31749); assay: Akt1 kinase assay (TR-FRET); type: biochemical; details: 10 μM ATP; read-out: Akt1, median IC50
In short: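 Full-length His-tagged Akt1 (about 0.05 ng/μl final) preincubated 15 min at 22 °C with compound in 50 mM TRIS/HCl pH 7.5, 5 mM MgCl2, 1 mM DTT, 0.02% Triton X-100; biotinylated peptide substrate. Phosphopeptide detected by TR-FRET (Eu-chelate antibody to streptavidin-XL665) after 1 h at 22 °C.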

[5] = tested on: MCF7; assay: Tumor cell proliferation assay (CellTiter-Glo, 72 h), MCF7; type: cell-based; details: Homo sapiens, 72h drug exposure
Method: Compounds were tested in a cell-based assay that measures the capacity of the compounds to inhibit tumour cell proliferation following a 72h drug exposure. Cell viability is determined using CellTiter-Glow® (CTG, Promega, cat# G7571/2/3). The CellTiter-Glo® Luminescent Cell Viability Assay is a homogeneous method to determine the number of viable cells in culture. Detection is based on using the luciferase reaction to measure the amount of ATP from viable cells. The amount of ATP in cells correlates with cell viability. Within minutes after a loss of membrane integrity, cells lose the ability to synthesize ATP, and endogenous ATPases destroy any remaining ATP; thus the levels of ATP fall precipitously.
Cells were plated at 3000-5000 cells/well (depending on the cell lines) in 90 μL growth medium on MTPs (Corning; #3603, black plate, clear flat bottom). For each cell line assayed, cells were plated onto a separate plate for determination of […] at t=0 hour and t=72 hour time points. Following overnight incubation at 37° C., chemiluminescence values for the t=0 samples were determined after adding 10 μl medium and 100 μl CTG solution according to manufacture protocol. Plates for the t=72 hour time points were treated with compounds diluted into growth medium at ten times final concentration added in 10 μL to the cell culture plate. Cells were then incubated for 72 hours at 37° C. Chemiluminescence values for the t=72 hour samples were determined. […] Experiments were controlled using a reference compound as standard.

[6] = tested on: p-4E-BP1-T70 in KPL4 breast tumour cell line; assay: Cellular p-4E-BP1-T70 assay; type: cell-based; details: 2 hours treatment, read-out: P4EBP1-T70 median IC50
Method: The molecular mechanism of action was investigated in a set of experiments to assess the inhibition of the PI3K-AKT-mTOR pathway in responsive cell lines such as KPL4 breast tumour cell line (PIK3CAH1047R, HER20/E and hormone independent). The phospho-substrates of PI3K-AKT-mTOR axis were used as the read-outs to reflect pathway inhibition. Cells were seeded at 60-80% confluency per well in 96-well cell culture plates. After overnight incubation at 37° C. 5% CO2, cells were treated with compounds and vehicle at 37° C. for 2 hours. Thereafter, cells were lysed in 150 μl lysis buffer and the levels of phospho-AKT at T308 and S473 and p-4E-BP1 at T70 sites were determined with the corresponding AlphaScreen® SureFire® assay kits (Perkin Elmer: 4E-BP1 Assay Kit Cat # TRG4E2S10K; Akt 1/2/3 p-Ser 473 #TGRA4S500 and Akt 1/2/3 p-Thr 308 #TGRA3S500 as well as IgG detection Kit #6760617M) as described in the manuals. All measurements where at least done in duplicates and confirmed by independent repetition.

[7] = 2 hours post treatment, read-out: P-AKT % relative to control at 2 hours
[8] = 5 hours post treatment, read-out: P-AKT % relative to control at 5 hours

His-tagged human recombinant kinase full-length Akt1, sequence (P31749 whole entry): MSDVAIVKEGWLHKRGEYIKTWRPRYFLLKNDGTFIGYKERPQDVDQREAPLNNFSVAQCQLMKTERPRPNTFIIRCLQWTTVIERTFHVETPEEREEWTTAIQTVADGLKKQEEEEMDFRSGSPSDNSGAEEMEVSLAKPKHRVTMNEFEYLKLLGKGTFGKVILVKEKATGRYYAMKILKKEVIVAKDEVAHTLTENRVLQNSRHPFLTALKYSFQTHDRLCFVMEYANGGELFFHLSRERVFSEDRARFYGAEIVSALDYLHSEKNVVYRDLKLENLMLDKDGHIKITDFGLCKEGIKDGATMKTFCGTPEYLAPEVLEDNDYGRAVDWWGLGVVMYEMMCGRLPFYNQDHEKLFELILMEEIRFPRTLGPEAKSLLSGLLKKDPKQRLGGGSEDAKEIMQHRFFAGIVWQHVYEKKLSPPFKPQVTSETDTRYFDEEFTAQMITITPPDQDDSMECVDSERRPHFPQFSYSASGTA

| IC50 [1] | IC50 [2] | IC50 [4] | IC50 [5] | IC50 [6] | Compound | response vs control in vivo at 50 mg/kg [3, 7] | response vs control in vivo at 50 mg/kg [3, 8] |
| --- | --- | --- | --- | --- | --- | --- | --- |
| 770 nM | 2000 nM |  |  |  | NC1(c2ccc(-c3nc4ncc(-c5ccccc5)cn4c3-c3ccccc3)cc2)CCC1 [Example 1-9] | 32.2% | 21.1% |
| 33 nM | 500 nM |  |  |  | NC(=O)c1ccc2nc(-c3ccc(C4(N)CCC4)cc3)c(-c3ccccc3)n2c1 [Example 2-18] | 8% | 7.7% |
| 33 nM | 600 nM |  |  |  | NC(=O)c1ccn2c(-c3ccccc3)c(-c3ccc(C4(N)CCC4)cc3)nc2c1 [Example 2-41] | 10.2% | 8.8% |
| 49 nM | 1500 nM | 19 nM | 1100 nM |  | COc1cc(Br)cn2c(-c3ccccc3)c(-c3ccc(C4(N)CCC4)cc3)nc12 [Example 2-52] | 34.9% | 47.9% |
| 235 nM | 1800 nM |  | 1700 nM | 3980 nM | Cc1cc(C)c2nc(-c3ccc(C4(N)CCC4)cc3)c(-c3ccccc3)n2c1 [Example 2-73] | 9.1% | 9.3% |
| 79 nM | 1100 nM | 52 nM | 600 nM | 1600 nM | NC1(c2ccc(-c3nc4c(F)cc(F)cn4c3-c3ccccc3)cc2)CCC1 [Example 2-75] | 5.5% | 6.2% |
| 1100 nM | 1800 nM |  | 1700 nM | 3480 nM | Cc1c(Cl)cn2c(-c3ccccc3)c(-c3ccc(C4(N)CCC4)cc3)nc2c1Br [Example 2-81] | 33.6% | 69.6% |
| 43 nM | 700 nM |  | 600 nM | 636 nM | COc1cc(OC)c2nc(-c3ccc(C4(N)CCC4)cc3)c(-c3ccccc3)n2c1 [Example 2-146] | 17.5% | 22.3% |
| 248 nM | 1700 nM | 148 nM | 500 nM | 1340 nM | CCc1cc(OC)c2nc(-c3ccc(C4(N)CCC4)cc3)c(-c3ccccc3)n2c1 [Example 2-147] |  |  |
| 576 nM | 2900 nM | 198 nM | 1800 nM | 1960 nM | COc1cc(-c2ncc[nH]2)cn2c(-c3ccccc3)c(-c3ccc(C4(N)CCC4)cc3)nc12 [Example 2-149] |  |  |
| 907 nM | 4700 nM | 2990 nM | 2800 nM | 3280 nM | CS(=O)(=O)Nc1ccc2nc(-c3ccc(C4(N)CCC4)cc3)c(-c3ccccc3)n2c1 [Example 2-159] |  |  |
| 1120 nM | 3100 nM | 1500 nM | 1800 nM | 8150 nM | Cc1cccc2nc(-c3ccc(C4(N)CCC4)cc3)c(-c3ccccc3)n12 [Example 14-0, 1-[4-(5-methyl-3-phenylimidazo[1,2-a]pyridin-2-yl)phenyl]cyclobutanamine] |  |  |

Second part, the compound before the results:

| Compound | IC50 [1] | IC50 [2] | IC50 [4] | IC50 [5] | IC50 [6] | response vs control in vivo at 50 mg/kg [3, 7] | response vs control in vivo at 50 mg/kg [3, 8] |
| --- | --- | --- | --- | --- | --- | --- | --- |
| COc1ccn2c(-c3ccccc3)c(-c3ccc(C4(N)CCC4)cc3)nc2n1 [Example 2-00, 1-[4-(7-methoxy-3-phenyl-imidazo[1,2-a]pyrimidin-2-yl)-phenyl]-cyclobutylamine] |  |  |  |  |  | 4.7% | 6.3% |
| Cc1cc(-c2cccnc2)c2nc(-c3ccc(C4(N)CCC4)cc3)c(-c3ccccc3)n2c1 [Example 2-90] | 337 nM | 1900 nM |  | 1700 nM | 1560 nM | 51.6% | 53.7% |
| Cc1cc(-c2ccn[nH]2)c2nc(-c3ccc(C4(N)CCC4)cc3)c(-c3ccccc3)n2c1 [Example 2-92] | 1400 nM | 4300 nM | 229 nM | 4300 nM | 1570 nM | 34.6% | 22% |
| Cc1cc(-c2cn[nH]c2)c2nc(-c3ccc(C4(N)CCC4)cc3)c(-c3ccccc3)n2c1 [Example 2-93] | 528 nM | 2000 nM |  | 1800 nM | 1420 nM | 46% | 79.2% |
| NC1(c2ccc(-c3nc4cc(-c5ncc[nH]5)ccn4c3-c3ccccc3)cc2)CCC1 [Example 2-114] | 25 nM | 800 nM | 71 nM | 700 nM |  | 47% | 57.2% |
| NC1(c2ccc(-c3nc4ccc(Cl)cn4c3-c3ccccc3)cc2)CCC1 [Example 2-140] | 115 nM | 1900 nM |  | 500 nM | 2660 nM | 26% | 18% |
| COc1cc(-c2cnc[nH]2)cn2c(-c3ccccc3)c(-c3ccc(C4(N)CCC4)cc3)nc12 [Example 2-148] | 397 nM | 1900 nM | 139 nM | 1500 nM | 1810 nM |  |  |
| Nc1ccn2c(-c3ccccc3)c(-c3ccc(C4(N)CCC4)cc3)nc2c1 [Example 2-151] | 482 nM | 1700 nM | 514 nM | 200 nM | 4810 nM |  |  |
| Nc1ccc2nc(-c3ccc(C4(N)CCC4)cc3)c(-c3ccccc3)n2c1 [Example 2-155] | 374 nM | 5500 nM | 854 nM | 1700 nM | 2220 nM |  |  |
| CC(=O)Nc1ccc2nc(-c3ccc(C4(N)CCC4)cc3)c(-c3ccccc3)n2c1 [Example 2-156] | 190 nM | 900 nM | 62 nM | 500 nM | 1210 nM |  |  |
| C=Cc1cc(OC)c2nc(-c3ccc(C4(N)CCC4)cc3)c(-c3ccccc3)n2c1 [Example 2-160] | 349 nM | 1600 nM | 191 nM | 800 nM | 1380 nM |  |  |
